Measured values: PubChem BioAssay AID179 (DTP/NCI, 2004)
The source made the active and inactive calls.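 Rule for the calls: active = compounds giving half or more protection of infected cells from virus-caused growth loss, again on retest; inactive = the rest.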 Where a SMILES comes first, the peptide text is derived from it. The star is where a group is joined. Bn = c1ccc(C*)cc1

Tested on: CEM cells HIV-1 protection, formazan growth assay
Assay: NCI AIDS Antiviral Assay
Details: for IC50: measured here: growth of uninfected CEM cells
Procedure, shortened: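 Human CEM cells, uninfected and HIV-1-infected, received five drug concentrations, and growth was read by soluble formazan assay. Compounds giving at least 50% protection were retested; reproducible 100% protection defined confirmed active.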

Row | Structure (SMILES) | EC50 [µM] | IC50 [µM] | outcome
1 | CCCCOCOc1ccccc1P1(=O)COc2ccccc2OC1 | > 200 | 44.7 | –
2 | CCC(C)(C)c1ccc(OCCCCNC(=O)c2ccc3ccccc3c2O)c(C(C)(C)CC)c1 | > 200 | 7.41 | –
3 | CC(=O)Nc1nc(N)nc(NC(C)=O)c1N=O | > 200 | 30.9 | –
4 | O=c1ccn2n1Cc1ccccc1C2 | > 200 | > 200 | –
5 | CNC(=O)C(CC(C)C)NC(=O)CNC(=O)C(Cc1ccc(OCc2ccccc2)cc1)NC(=O)C(COCc1ccccc1)NC(C)=O (stereo not drawn) (Ac-S(Bn)Y(Bn)GL-NHMe; configuration not given here) | > 200 | 37.2 | –
6 | CCOC1Oc2ccccc2-c2nc(C)c(C#N)cc21 (stereo not drawn) | > 83.2 | > 83.2 | –
7 | CCCCCCCN=C(N)CSSCC(N)=NCCCCCCC | > 331 | 10.2 | –
8 | C[C@]12CCNC(=O)C=C1CC[C@@H]1C2CC[C@@]2(C)C1CC[C@@H]2O (stereo partly drawn) | – | – | inactive
9 | NNC(=O)c1nnn(CCc2ccccc2)c1C(=O)NN | > 200 | > 200 | –
10 | COC1N(C2C=CC(CO)O2)C(=O)NC(=O)C1(C)Cl (stereo not drawn) | 468 | 1020 | –
11 | Nc1nnc(-c2ccccc2S)o1 | > 63.1 | 26.9 | –
12 | C[N+]1=C(c2ccc[n+](C)c2/C=N/O)OCC1(C)C | > 501 | > 501 | –
13 | Cc1cc(=O)cc2sc3cc(Cl)ccc3nc1-2 | > 10.5 | > 10.5 | –
14 | CCOC(=O)C(C)(C)Oc1ccc(N=[N+]=[N-])cc1 | > 200 | > 200 | –
15 | O=c1[nH]c(Nc2ccc(Cl)cc2)nc2nc[nH]c12 | > 100 | 89.1 | –
16 | CC(C)(C)/[N+]([O-])=[N+](\[O-])C(C)(C)C | > 200 | 33.9 | –
17 | Brc1ccc(/C=C2\C=Cc3ccccc32)cc1 | > 25.7 | > 25.7 | –
18 | COc1ccc(/C=c2\sc3n(c2=O)CCN=3)cc1 | – | – | inactive
19 | Cc1ccc(C(=O)Nc2ccc(CP(=O)(O)O)cc2)cc1NC(=O)c1cccc(N)c1 | > 200 | > 200 | –
20 | CCOC(=O)C(CC(C)C)NC(=O)c1cc(SC#N)c(C)c2c1Nc1c(c(C)c3oc(=O)c(C)nc3c1C(=O)NC(CC(C)C)C(=O)OCC)O2 (stereo not drawn) | > 5.01 | > 5.01 | –
21 | CCOc1ccccc1/C=C1\NC(=O)NC1=O | > 200 | > 200 | –
22 | C=C(C)COC(=O)COCC(=O)OCC(=C)C | > 200 | > 200 | –

Row | Structure (SMILES) | EC50 [µM] | IC50 [µM] | outcome
23 | O=c1cc(Cl)c(Cl)nn1-c1ccccc1 | > 56.2 | 9.77 | –
24 | COC(=O)C1(O)c2ccccc2N=C2C(=O)c3ccccc3N21 (stereo not drawn) | > 200 | > 200 | –
25 | COc1ccc(P2(=S)Oc3ccc(C(c4ccccc4)(c4ccccc4)c4ccccc4)cc3O2)cc1 (stereo not drawn) | – | – | inactive
26 | COC(=O)[C@]1(C)CCC[C@]2(C)c3cc(C(C)=O)c(C(C)C)cc3CC[C@@H]12 | > 200 | 25.7 | –
27 | CSCCC(N)CO (stereo not drawn) | > 200 | > 200 | –
28 | O=C1CSC(c2ccccc2O)N1c1ccc(Oc2ccc(Cl)cc2)c(Cl)c1 (stereo not drawn) | > 100 | 24 | –
29 | Cc1c(O)c2ccccc2c2c1sc(NCCO)[n+]2C | > 79.4 | 40.7 | –
30 | NCCOc1c2occc2cc2ccc(=O)oc12 | > 275 | 20.4 | –
31 | CCN(CC)C1Oc2cc3c(cc2C(c2cccc(OC)c2OC)C1C)OCO3 (stereo not drawn) | > 200 | 1.58 | –
32 | CC1CC(C)C(=O)C(C(=O)CC2CC(=O)NC2=O)C1 (stereo not drawn) | > 200 | > 200 | –
33 | O=C1CSC(=Nc2ccccc2)N1c1ncccn1 | > 47.9 | > 47.9 | –
34 | O=CC[C@@]12CC(=O)OC(C1)[C@@H](I)CC21OCCO1 | > 200 | > 200 | –
35 | CCN(CC)CCC(=O)OC1C(C)=CC(C)C(=O)CC(C(C)CC2CCC(O)C(OC)C2)OC(=O)C2CCCCN2C(=O)C(=O)[C@@]2(O)OC(CCC2C)CC(OC)\C(C)=C/C=C/C=C/C(C)CC(C)C(=O)C1OC (stereo partly drawn) | > 200 | 9.12 | –
36 | COc1cc2c(c3oc(=O)cc(C)c13)C(=O)[C@H](C)[C@@H](C)O2 | > 200 | 126 | –
37 | CCOC(=O)C(=Cn1c(=S)[nH]c2ccc([N+](=O)[O-])cc21)C(=O)OCC | > 200 | 77.6 | –
38 | COC1CC2CCC(C)[C@](O)(O2)C(=O)C(=O)N2CCCCC2C(=O)OC(C(C)CC2CCC(O)C(OC)C2)CC(=O)C(C)C=C(C)C(OC(=O)CN(C)C)C(OC)C(=O)C(C)CC(C)/C=C/C=C/C=C\1C (stereo partly drawn) | > 200 | 7.24 | –
39 | C/C(=N\O)c1ccccc1 | – | – | inactive
40 | O=C1C2CC3OC3CC2C(=O)N1CN1C(=O)C2CC3OC3CC2C1=O (stereo not drawn) | > 200 | > 200 | –
41 | CCOC(=O)C(C)(C(C)=O)c1nc(=S)[nH]c(=S)[nH]1 (stereo not drawn) | > 200 | 95.5 | –
42 | Cc1ccc2nc(C(C)C)c(=O)[nH]c2c1 | > 200 | > 200 | –
43 | N#C/C(=C\NC(=S)NCc1ccccc1)c1nc2ccccc2s1 | > 200 | 47.9 | –
44 | N#CC(C(=O)C(N)=O)c1ccccc1Cl (stereo not drawn) | > 427 | > 427 | –

Row | Structure (SMILES) | EC50 [µM] | IC50 [µM] | outcome
45 | CN(C)c1ccc(N=Nc2cccc3ccoc23)cc1 | – | – | inactive
46 | Cc1c(C#N)c(=N)oc2ccccc12 | > 200 | 115 | –
47 | CCCCCCCCCCOCC(COCCOCC(COCCCCCCCCCC)OCCCS(=O)(=O)O)OCCCS(=O)(=O)O (stereo not drawn) | > 204 | 107 | –
48 | Cc1ccc(S(=O)(=O)OCC23CCC(C4CC42)C2CC23)cc1 (stereo not drawn) | > 100 | 77.6 | –
49 | C=C1C[C@](OC)([C@H](O)C(=O)N[C@@H](OC)[C@@H]2C[C@@H](O)C(C)(C)[C@@H](C[C@@H](COC)OC)O2)O[C@H](C)[C@@H]1C | – | – | inactive
50 | O=C(CCN(CCO)CCO)Nc1ccc2c(c1)C(=O)c1ccc(NC(=O)CCN(CCO)CCO)cc1C2=O | > 200 | 1.66 | –
51 | Cc1ccc(S(=O)(=O)NC(C)C(=O)O)cc1 (stereo not drawn) | – | – | inactive
52 | CC#CC(=O)Nc1ccccc1CC(c1c[nH]c2ccccc12)c1c[nH]c2ccccc12 | > 35.5 | 19.1 | –
53 | CC1(C(=O)O)CCC[C@@]2(C)C1CC[C@@]1(C)c3cocc3CCC21 (stereo partly drawn) | – | – | inactive
54 | CC12OC3(C(O)C1O)C(C(=O)O[C@H]3CO[Si](C)(C)C(C)(C)C)C2S(=O)(=O)c1ccccc1 (stereo partly drawn) | – | – | inactive
55 | C1=C(c2ccccc2)N2CCCNC2(c2ccccc2)CS1 (stereo not drawn) | > 200 | 132 | –
56 | COC1=CC(=O)C2C(C1=O)C(c1ccc(Cl)cc1)[C@@H]2C (stereo partly drawn) | > 170 | 28.2 | –
57 | CC(C)NC(=O)/C=C/C=C/c1ccc(Cl)cc1 | > 28.8 | > 28.8 | –
58 | CCN(C(=O)N[C@@H](CC(C)C)C(=O)NCC(=O)OC)c1ccccc1 | > 200 | 110 | –
59 | O=C1c2ccccc2C(=O)C2(C(c3ccccc3)c3ccccc3)N=NCC12 (stereo not drawn) | > 200 | 105 | –
60 | CC1N=C(c2ccccn2)C(c2ccccn2)=NC1c1ccccc1 (stereo not drawn) | > 79.4 | > 79.4 | –
61 | CCCNC(C#N)c1ccc(OCCCCCCCCCCOc2ccc(C(C#N)NCCC)cc2)cc1 (stereo not drawn) | > 200 | 11 | –
62 | Nn1c(N=Nc2c(O)[nH]c3ccccc23)n[nH]c1=S | > 33.9 | > 33.9 | –
63 | CCOC(=O)CC(c1ccccc1)C(C)(C(=O)OCC)C(=O)OCC (stereo not drawn) | – | – | inactive
64 | Cc1ccc(/C=N/n2c(=O)[nH]c3ccccc3c2=O)cc1 | > 200 | > 200 | –
